Measured values as given in paper PMC7674464, “Effect of pH on the influenza fusion peptide properties unveiled by constant-pH molecular dynamics simulations combined with experiment” (Scientific Reports, 2020).
Where two headings read alike, the source gives them in different places. Where no end group is shown, it is not given here.

Columns and labels:
[1] = 16000 nM, pH 7.4
[2] = not given; remark: listed apart in the source
Asp19 = Asp19 (UniProt position 362, WTGMIDGWYGY); assay: NMR; conditions: micelle-bound peptide with lysine tail; cited from earlier work
Nterm1 = Nterm1 (UniProt position 344, SIQSRGLFGAI); assay: NMR; conditions: micelle-bound peptide with lysine tail; cited from earlier work
Glu11 = Glu11 (UniProt position 354, IAGFIEGGWTG); assay: NMR; conditions: micelle-bound peptide with lysine tail; cited from earlier work

Substance	percentage of lipid mixing [1] [%]	amide I band peak position [cm⁻¹]	partition coefficient (Kp) between the aqueous and lipid phases ([2]; pH 5)	partition coefficient (Kp) between the aqueous and lipid phases ([2]; pH 7.4)	pKa (Asp19)	pKa (Nterm1)	pKa (Glu11)
GLFGAIAGFIEGGWTGMIDGWYGS [influenza fusion peptide]	23.9 ± 1.8	1660	(1.0 ± 0.1) × 10^4	(2.9 ± 0.4) × 10^4	–	–	–
Influenza hemagglutinin HA2 fusion peptide (HAfp23) with C-terminal hydrophilic lysine tail (Influenza A virus (subtype H1; strain not stated))	–	–	–	–	4.35	8.8	5.31
